From ChEMBL document CHEMBL1136072, “Structural features of piperazinyl-linked ciprofloxacin dimers required for activity against drug-resistant strains of Staphylococcus aureus” (2003) come the findings set out here.

Format in all cases: functional
Assay [1] relates to Staphylococcus aureus. The assay can be described thus: Minimum inhibitory concentration required against Staphylococcus aureus GISA 992, vancomycin-insensitive SA.
The test system of assay [2] is Staphylococcus aureus. The assay can be described thus: Minimum inhibitory concentration required against Staphylococcus aureus MRSA 494, methicillin resistant SA isolate.
Assay [3] deals with Staphylococcus aureus. As to the kind of experiment: Minimum inhibitory concentration required against Staphylococcus aureus SA-1199, wild-type isolate.
Assay [4] has as its system Staphylococcus aureus. As to the kind of experiment: Minimum inhibitory concentration required against Staphylococcus aureus SA 1199-3, laboratory-derived mutant of SA 1199 that inducibly overexpresses norA, no gyrase or topoisomerase IV mutations.
The subject of assay [5] is Staphylococcus aureus. As to the kind of experiment: Minimum inhibitory concentration required against Staphylococcus aureus SA 1199B, constitutively overexpresses norA and harbors a topoisomerase IV A subunit substitution (A116E). Further details: unit not given beside the values.

On to `CCn1cc(C(=O)O)c(=O)c2cnc(N3CCN(Cc4ccc(CN5CCN(c6cc7c(cc6F)c(=O)c(C(=O)O)cn7C6CC6)CC5)cc4)CC3)nc21`, for which the figures for the MIC in assay [1], in assay [2] and in assay [3] were 2, 0.125 and less than 0.03, respectively.
`O=C(O)c1cn(C2CC2)c2cc(N3CCN(Cc4ccc(CN5CCN(c6cc7c(cc6F)c(=O)c(C(=O)O)cn7C6CC6)CC5)cc4)CC3)c(F)cc2c1=O`: the MIC in assay [1] came out at 4; in assay [3], 0.125.
On to `O=C(O)c1cn(C2CC2)c2cc(N3CCN(Cc4ccc(CN5CCN(c6cc7c(cc6F)c(=O)ccn7C6CC6)CC5)cc4)CC3)c(F)cc2c1=O`, for which the MIC was greater than 16 in assay [1]; 1 in assay [2]; 0.5 in assay [4]; 0.5 in assay [5]; 0.25 in assay [3].
As for `O=C(O)c1cn(C2CC2)c2cc(N3CCN(/C=C/CN4CCNCC4)CC3)c(F)cc2c1=O`, the MIC in assay [1] is reported as greater than 16; in assay [2], 2; in assay [4], 2; in assay [5] it was 2; in assay [3], 1.
Take `CN1CCN(c2cc3c(cc2F)c(=O)c(C(=O)O)cn3C2CC2)CC1`: the MIC in assay [1] is 32; in assay [2], 0.5; in assay [4] it was 1; in assay [5], 8; in assay [3], 0.125.
With `O=C(O)c1cn(C2CC2)c2cc(N3CCN(/C=C/CN4CCN(c5ccccc5F)CC4)CC3)c(F)cc2c1=O`, the MIC in assay [1] is greater than 16; in assay [3], 0.5.
Turning to `O=C(O)c1cn(C2CC2)c2cc(N3CCN(Cc4ccc(CN5CCN(c6ccccc6F)CC5)cc4)CC3)c(F)cc2c1=O`, the MIC is listed as 16 in assay [1] and 0.5 in assay [3].
In the case of `O=C(O)c1cn(C2CC2)c2cc(N3CCN(/C=C/CN4CCN(c5cc6c(cc5F)c(=O)c(C(=O)O)cn6C5CC5)CC4)CC3)c(F)cc2c1=O`, the MIC is greater than 16 in assay [1], 0.125 in assay [2], 0.06 in assay [4] and 0.03 in assay [3].
On to `CN1CCN(c2cc3c(cc2F)c(=O)ccn3C2CC2)CC1`, for which the MIC in assay [1], in assay [2], in assay [4], in assay [5] and in assay [3] was greater than 16 in each case.
For the molecule `O=C(O)c1cn(C2CC2)c2cc(N3CCN(Cc4ccc(CN5CCNCC5)cc4)CC3)c(F)cc2c1=O`, the MIC was greater than 16 in assay [1], 0.25 in assay [2], 1 in assay [5] and 0.5 in assay [3].
Consider `CCn1cc(C(=O)O)c(=O)c2cnc(N3CCNCC3)nc21` [PIPEMIDIC ACID], for which the MIC in assay [1] and in assay [3] was greater than 16 each time.
